# In patent US9980943B2, “Methods of treating muscular dystrophy” (BOARD OF REGENTS OF THE NEVADA SYSTEM OF HIGHER EDUCATION, …, priority 2013, dated 2018):
# Legend:
# Type in all cases: cell-based, mouse
# [1] = system: α7 integrin (LacZ reporter in α7+/LacZ myotubes); assay: Myotube α7 integrin FDG assay (Burkin assay in myotubes, 96-well); settings: myotubes
# [2] = system: β-galactosidase in CMV-LacZ C2C12 myotubes; assay: CMV-LacZ secondary screen in C2C12 myotubes (β-Gal stabilizing assay); settings: for CMV-LACZ in Myotubes (β-galactosidase activity relative to DMSO): CMV-LacZ C2C12 myotubes, 96-well format
# Excerpt: In order to determine compounds that acted to stabilize β-gal in myogenic cells, a CMV-LacZ C2C12 cell line was used in a secondary screen. The EGFP gene from the pEGFP (Clontech) vector was replaced by LACZ PCR product with digests of the vector/PCR product performed using EcoRI (NEB) and NotI (NEB) and ligated using T4 DNA Ligase (NEB) following standard procedures to produce the CMV-LACZ vector. The LACZ gene was generated by PCR from the pBK-RSV (Stratagene) vector using primers LACZ EcoRI F- and LACZ NotI R-. The CMV-LACZ vector was then digested with AfIII (NEB) to linearize the construct, which was then transfected in C2C12 myoblasts using Lipofectamine 2000 (Invitrogen) following the manufacturer's instructions. […] Clonal lines were selected and screened for βgal levels using the myoblast FDG assay.
# The assays were used the original 96-well format and new dose-response curves for myoblasts (N=3-6 replicates for each data point), myotubes (N=3-6 replicates for data point), and CMV-LacZ secondary assay (N=2 replicates for each data point) using concentrations of 0.5 μM, 1 μM, 5 μM, 10 μM, 20 μM, and 40 μM (Tables 9-16).
# [3] = system: α7 integrin (LacZ reporter in α7βgal+/− myoblasts); assay: Myoblast α7+/LacZ integrin FDG assay (Burkin assay in myoblasts, 96-well); settings: α7+/LacZ myoblasts, 96-well
# [4] = 5 uM, C2C12 CMV-LacZ myotubes, fold relative to DMSO
# [5] = 10 uM, C2C12 CMV-LacZ myotubes, fold relative to DMSO
# [6] = 20 uM, C2C12 CMV-LacZ myotubes, fold relative to DMSO
# [7] = 40 uM, C2C12 CMV-LacZ myotubes, fold relative to DMSO
Structure (SMILES),Burkin Assay in Myotubes (signal relative to DMSO) ([1]; 0.5 uM),Burkin Assay in Myotubes (signal relative to DMSO) ([1]; 1 uM),Burkin Assay in Myotubes (signal relative to DMSO) ([1]; 5 uM),Burkin Assay in Myotubes (signal relative to DMSO) ([1]; 10 uM),Burkin Assay in Myotubes (signal relative to DMSO) ([1]; 20 uM),Burkin Assay in Myotubes (signal relative to DMSO) ([1]; 40 uM),"CMV-LACZ in Myotubes, signal relative to DMSO [2, 4]","CMV-LACZ in Myotubes, signal relative to DMSO [2, 5]","CMV-LACZ in Myotubes, signal relative to DMSO [2, 6]","CMV-LACZ in Myotubes, signal relative to DMSO [2, 7]","Burkin Assay in Myoblasts, value relative to DMSO ([3]; 0.5 uM)","Burkin Assay in Myoblasts, value relative to DMSO ([3]; 1 uM)","Burkin Assay in Myoblasts, value relative to DMSO ([3]; 5 uM)","Burkin Assay in Myoblasts, value relative to DMSO ([3]; 10 uM)","Burkin Assay in Myoblasts, value relative to DMSO ([3]; 20 uM)","Burkin Assay in Myoblasts, value relative to DMSO ([3]; 40 uM)","Burkin Assay in Myotubes, α7 integrin LacZ reporter signal relative to DMSO ([1]; 0.5 uM)","Burkin Assay in Myotubes, α7 integrin LacZ reporter signal relative to DMSO ([1]; 1 uM)","Burkin Assay in Myotubes, α7 integrin LacZ reporter signal relative to DMSO ([1]; 5 uM)","Burkin Assay in Myotubes, α7 integrin LacZ reporter signal relative to DMSO ([1]; 10 uM)",further results
c1ccc(-c2cnc(-c3ccccc3)nc2)cc1 [MLS000532078-01],1.0727,1.078,1.239,1.114,1.078,1.043,0.791,0.8914,0.9443,0.8623,1.091,1.076,0.944,0.9431,1.09,1.077,–,–,–,–,–
Cc1ccc(NC(=O)CC2COc3ccccc3O2)cc1 (centres unmarked) [MLS000534926-01],1.026,0.9445,1.006,0.9622,1.338,0.8565,–,–,–,–,1.522,0.9473,0.8586,0.8832,0.5996,0.4222,–,–,–,–,CMV-LACZ in Myotubes (β-galactosidase activity relative to DMSO) ([2]; 5 uM): 0.9724; CMV-LACZ in Myotubes (β-galactosidase activity relative to DMSO) ([2]; 10 uM): 0.969; CMV-LACZ in Myotubes (β-galactosidase activity relative to DMSO) ([2]; 20 uM): 0.9547; CMV-LACZ in Myotubes (β-galactosidase activity relative to DMSO) ([2]; 40 uM): 0.844
Cc1ccc(NC(=O)COc2ccccc2CNC(C)(C)CC(C)(C)C)cc1 [MLS000538580-01],–,–,–,–,–,–,0.6613,0.5729,0.3838,0.2705,–,–,–,–,–,–,1.087,1.025,0.8641,0.4774,"Burkin Assay in Myotubes, α7 integrin LacZ reporter signal relative to DMSO ([1]; 20 uM): 0.928; Burkin Assay in Myotubes, α7 integrin LacZ reporter signal relative to DMSO ([1]; 40 uM): 0.1825; Burkin Assay in Myoblasts, signal relative to DMSO ([3]; 0.5 uM): 0.9645; Burkin Assay in Myoblasts, signal relative to DMSO ([3]; 1 uM): 0.9097; Burkin Assay in Myoblasts, signal relative to DMSO ([3]; 5 uM): 0.8691; Burkin Assay in Myoblasts, signal relative to DMSO ([3]; 10 uM): 0.5306; Burkin Assay in Myoblasts, signal relative to DMSO ([3]; 20 uM): 0.03863; Burkin Assay in Myoblasts, signal relative to DMSO ([3]; 40 uM): 0.02896"
COc1cc(/C=C/c2nc(-c3ccccc3O)n[nH]2)cc(OC)c1OC [MLS000548725-01],0.8698,0.8418,0.9206,0.8462,1.031,0.2219,–,–,–,–,0.9132,0.8894,0.8989,0.7645,0.5169,0.07694,–,–,–,–,CMV-LACZ in Myotubes (β-galactosidase activity relative to DMSO) ([2]; 5 uM): 0.9789; CMV-LACZ in Myotubes (β-galactosidase activity relative to DMSO) ([2]; 10 uM): 1.126; CMV-LACZ in Myotubes (β-galactosidase activity relative to DMSO) ([2]; 20 uM): 0.8729; CMV-LACZ in Myotubes (β-galactosidase activity relative to DMSO) ([2]; 40 uM): 0.332
COc1ccc(CCNC(=O)c2cc(-c3cc(C)ccc3O)n[nH]2)cc1OC [MLS000552080-01],–,–,–,–,–,–,1.197,1.0688,0.9522,0.8044,–,–,–,–,–,–,0.9672,1.15,1.214,1.24,"Burkin Assay in Myotubes, α7 integrin LacZ reporter signal relative to DMSO ([1]; 20 uM): 1.0378; Burkin Assay in Myotubes, α7 integrin LacZ reporter signal relative to DMSO ([1]; 40 uM): 0.9286; Burkin Assay in Myoblasts, signal relative to DMSO ([3]; 0.5 uM): 0.9689; Burkin Assay in Myoblasts, signal relative to DMSO ([3]; 1 uM): 0.9784; Burkin Assay in Myoblasts, signal relative to DMSO ([3]; 5 uM): 1.056; Burkin Assay in Myoblasts, signal relative to DMSO ([3]; 10 uM): 1.089; Burkin Assay in Myoblasts, signal relative to DMSO ([3]; 20 uM): 0.9333; Burkin Assay in Myoblasts, signal relative to DMSO ([3]; 40 uM): 0.8855"
Cc1ccc(C2=C(CC(=O)O)C(=O)CC2)cc1 [MLS000553673-01],0.8749,0.8923,1.304,1.161,1.088,1.134,0.8021,0.9603,1.005,0.9127,1.009,0.8952,1.038,1.0007,0.9043,0.8892,–,–,–,–,–
O=C(Nc1ccc(Oc2cccnc2)cc1)c1ccccc1Cl [MLS000574647-01],–,–,–,–,–,–,0.9166,0.9364,0.962,1.0095,–,–,–,–,–,–,0.935,0.8646,1.007,0.8596,"Burkin Assay in Myotubes, α7 integrin LacZ reporter signal relative to DMSO ([1]; 20 uM): 1.006; Burkin Assay in Myotubes, α7 integrin LacZ reporter signal relative to DMSO ([1]; 40 uM): 0.8219; Burkin Assay in Myoblasts, signal relative to DMSO ([3]; 0.5 uM): 1.081; Burkin Assay in Myoblasts, signal relative to DMSO ([3]; 1 uM): 1.027; Burkin Assay in Myoblasts, signal relative to DMSO ([3]; 5 uM): 0.9641; Burkin Assay in Myoblasts, signal relative to DMSO ([3]; 10 uM): 0.9515; Burkin Assay in Myoblasts, signal relative to DMSO ([3]; 20 uM): 0.8985; Burkin Assay in Myoblasts, signal relative to DMSO ([3]; 40 uM): 0.8343"
COc1cc2c(cc1NC(=O)Cc1ccc(C)cc1)oc1ccccc12 [MLS000579238-01],–,–,–,–,–,–,–,–,–,–,–,–,–,–,–,–,–,–,–,–,"fold induction at 0.5 µM ([1]; Mus musculus, Myotube, 0.5 uM, read-out: Burkin Assay in Myotubes, α7 integrin LacZ reporter signal relative to DMSO): 0.951; fold induction at 1 µM ([1]; Mus musculus, Myotube, 1 uM, read-out: Burkin Assay in Myotubes, α7 integrin LacZ reporter signal relative to DMSO): 1.11; fold induction at 5 µM ([1]; Mus musculus, Myotube, 5 uM, read-out: Burkin Assay in Myotubes, α7 integrin LacZ reporter signal relative to DMSO): 1.01; fold induction at 10 µM ([1]; Mus musculus, Myotube, 10 uM, read-out: Burkin Assay in Myotubes, α7 integrin LacZ reporter signal relative to DMSO): 1.1; fold induction at 20 µM ([1]; Mus musculus, Myotube, 20 uM, read-out: Burkin Assay in Myotubes, α7 integrin LacZ reporter signal relative to DMSO): 0.856; fold induction at 40 µM ([1]; Mus musculus, Myotube, 40 uM, read-out: Burkin Assay in Myotubes, α7 integrin LacZ reporter signal relative to DMSO): 0.771; fold induction at 5 µM ([2]; Mus musculus, C2C12, read-out: CMV-LACZ in Myotubes, signal relative to DMSO, 5 uM, C2C12 CMV-LacZ myotubes, fold relative to DMSO): 0.815; fold induction at 10 µM ([2]; Mus musculus, C2C12, read-out: CMV-LACZ in Myotubes, signal relative to DMSO, 10 uM, C2C12 CMV-LacZ myotubes, fold relative to DMSO): 0.872; fold induction at 20 µM ([2]; Mus musculus, C2C12, read-out: CMV-LACZ in Myotubes, signal relative to DMSO, 20 uM, C2C12 CMV-LacZ myotubes, fold relative to DMSO): 0.83; fold induction at 40 µM ([2]; Mus musculus, C2C12, read-out: CMV-LACZ in Myotubes, signal relative to DMSO, 40 uM, C2C12 CMV-LacZ myotubes, fold relative to DMSO): 0.944; fold induction at 0.5 µM ([3]; Mus musculus, Myoblast, 48 h, 0.5 uM, read-out: Burkin Assay in Myoblasts, signal relative to DMSO): 0.961; fold induction at 1 µM ([3]; Mus musculus, Myoblast, 48 h, 1 uM, read-out: Burkin Assay in Myoblasts, signal relative to DMSO): 1.11; fold induction at 5 µM ([3]; Mus musculus, Myoblast, 48 h, 5 uM, read-out: Burkin Assay in Myoblasts, signal relative to DMSO): 1.17; fold induction at 10 µM ([3]; Mus musculus, Myoblast, 48 h, 10 uM, read-out: Burkin Assay in Myoblasts, signal relative to DMSO): 1.3; fold induction at 20 µM ([3]; Mus musculus, Myoblast, 48 h, 20 uM, read-out: Burkin Assay in Myoblasts, signal relative to DMSO): 1.11; fold induction at 40 µM ([3]; Mus musculus, Myoblast, 48 h, 40 uM, read-out: Burkin Assay in Myoblasts, signal relative to DMSO): 0.912"
